Data on three compounds can be found in US20260116908A1, “TYLOSIN DERIVATIVE AND PREPARATION METHOD AND APPLICATION THEREOF” (Institute of Feed Research, Chinese Academy of Agricultural …, priority 2023, published 2026).

In general, MIC refers to the least concentration at which growth counts as inhibited. A higher MIC goes with a less susceptible organism.

Holding throughout (format): cell-based
The test system of assay [1] is Streptococcus pneumoniae ATCC 49169. Description: MIC by broth microdilution, Streptococcus pneumoniae. The settings on record: for MIC: Streptococcus pneumoniae, ATCC49169, final compound (after hydrolysis), 96-well two-fold dilution, 37° C., 24 hours; for antibacterial effect on Streptococcus pneumoniae before versus after hydrolysis: before vs after hydrolysis. The method, then: (§1) The antibacterial activity of the tylosin derivative Ia and the antibacterial activity of the tylosin derivative Ib of the present invention were determined by using the broth microdilution method with tylosin as a positive control. A broth culture medium was added into a 96-well plate, a prepared compound solution was diluted in a trace two-fold decreasing concentration, and then was inoculated with an appropriate amount of bacterial solution. After incubation for 24 hours, the minimum inhibitory concentration of the compound was observed. The culture medium used in the experiment was CAMHB broth and CAMHB+5% defibrillated sheep blood broth. The preserved bacteria strain was inoculated into a serum plate medium and cultured at 37° C. for 16-18 hours. An appropriate amount of bacteria after the completion of subculture and saline were placed into a turbidimetric tube and calibrated to the McFarland standard with a McFarland turbidimeter. The bacterial suspension was diluted 10 times with saline to prepare test bacterial solutions of certain concentrations (5×10^5 to 5×10^6 cfu/mL) for later use. Tylosin and the compounds obtained in the examples were dissolved in methanol to the desired concentration of each compound (1.0 mg/mL), stored in sterilized brown vials, stoppered, and sealed for later use. The working concentration range against Gram-negative bacteria was 0.25 μg/mL to 128 μg/mL; and the working concentration range against Gram-positive bacteria was […] to 50 μg/mL. The 96-well plate micro double dilution method was used. […] Finally, the prepared bacterial solution (of a concentration of 5×10^5 to 5×10^6 cfu/mL) was added into the first well to the eleventh well, and the twelfth well was not added with the bacterial solution to serve as a blank control. The 96-well plate was placed in a 37° C. incubator, cultured in a static state for 24 hours to observe the bacterial growth in each well. The solution in the well that inhibited bacterial growth was transparent, and the solution in the well that could not inhibit bacterial growth was turbid. The concentration corresponding to the well with a transparent solution was selected to be the minimum inhibitory concentration (MIC) of the sample.
A general note: In broth dilution the organism is exposed to a series of concentrations in liquid medium.

The test system of assay [2] is Escherichia coli ATCC 8099. Description: MIC by broth microdilution, Escherichia coli. The settings on record: for MIC: Escherichia coli, ATCC8099, final compound (after hydrolysis), 96-well two-fold dilution, 37° C., 24 hours; for antibacterial effect on Escherichia coli before versus after hydrolysis: before vs after hydrolysis. The method, then:
as §1

The subject of assay [3] is Staphylococcus aureus ATCC 29737. Description: MIC by broth microdilution, Staphylococcus aureus. As for the experimental part:
(§2) The antibacterial activity of the tylosin derivative Ia and the antibacterial activity of the tylosin derivative Ib of the present invention were determined by using the broth microdilution method with tylosin as a positive control. A broth culture medium was added into a 96-well plate, a prepared compound solution was diluted in a trace two-fold decreasing concentration, and then was inoculated with an appropriate amount of bacterial solution. After incubation for 24 hours, the minimum inhibitory concentration of the compound was observed. The culture medium used in the experiment was CAMHB broth and CAMHB+5% defibrillated sheep blood broth. The preserved bacteria strain was inoculated into a serum plate medium and cultured at 37° C. for 16-18 hours. An appropriate amount of bacteria after the completion of subculture and saline were placed into a turbidimetric tube and calibrated to the McFarland standard with a McFarland turbidimeter. The bacterial suspension was diluted 10 times with saline to prepare test bacterial solutions of certain concentrations (5×10^5 to 5×10^6 cfu/mL) for later use. Tylosin and the compounds obtained in the examples were dissolved in methanol to the desired concentration of each compound (1.0 mg/mL), stored in sterilized brown vials, stoppered, and sealed for later use. […]

Assay [4] concerns Streptococcus agalactiae CVCC3940. Description: MIC by broth microdilution, Streptococcus agalactiae. As for the experimental part: as §2

Each structure is given as a SMILES string. Converted amounts (≈) assume the structure as drawn.

Regarding `CC[C@H]1OC(=O)C[C@@H](O)[C@H](C)[C@@H](O[C@@H]2O[C@H](C)[C@@H](O)[C@H](N(C)C)[C@H]2O)[C@@H](CCN2CCC[C@@H]2CO)C[C@@H](C)C(=O)/C=C/C(C)=C/[C@@H]1CO[C@@H]1O[C@H](C)[C@@H](O)[C@@H](OC)[C@H]1OC` [Ib, 20-((R)-2-hydroxymethyltetrahydropyrrolyl)desmycosin], in assay [1], the MIC was determined as 0.098 µg/mL (≈ 0.114 µM), the “antibacterial effect on Streptococcus pneumoniae before versus after hydrolysis” value is “doubled after the hydrolysis” and the “in vitro antibacterial activity against Streptococcus pneumoniae compared with tylosin” value is listed as “higher in vitro antibacterial activity”. Further, in assay [2], the MIC is 64 µg/mL (≈ 74.7 µM) and the “antibacterial effect on Escherichia coli before versus after hydrolysis” value was “comparable”. In addition, the “in vitro antibacterial activity against Escherichia coli compared with tylosin” value in assay [2] (compared with tylosin) is “higher in vitro antibacterial activity”.
`CC[C@H]1OC(=O)C[C@@H](O)[C@H](C)[C@@H](O[C@@H]2O[C@H](C)[C@@H](O[C@H]3C[C@@](C)(O)[C@@H](O)[C@H](C)O3)[C@H](N(C)C)[C@H]2O)[C@@H](CC=O)C[C@@H](C)C(=O)/C=C/C(C)=C/[C@@H]1CO[C@@H]1O[C@H](C)[C@@H](O)[C@@H](OC)[C@H]1OC` [Tylosin]: the MIC was determined as 0.781 µg/mL (≈ 0.853 µM) in assay [1] and 128 µg/mL (≈ 140 µM) in assay [2].
Turning to `CC[C@H]1OC(=O)C[C@@H](O)[C@H](C)[C@@H](O[C@@H]2O[C@H](C)[C@@H](O)[C@H](N(C)C)[C@H]2O)[C@@H](CCNCCCO)C[C@@H](C)C(=O)/C=C/C(C)=C/[C@@H]1CO[C@@H]1O[C@H](C)[C@@H](O)[C@@H](OC)[C@H]1OC` [Ia, 20-(3-hydroxypropylamino)desmycosin], the MIC in assay [1] amounted to 0.391 µg/mL (≈ 0.47 µM); in assay [2], 128 µg/mL (≈ 154 µM); in assay [3] (Staphylococcus aureus, ATCC29737, after hydrolysis, 96-well two-fold dilution, 37° C., 24 hours), 0.781 µg/mL (≈ 0.94 µM); in assay [4] (Streptococcus agalactiae, CVCC3940, after hydrolysis, 96-well two-fold dilution, 37° C., 24 hours), 1.56 µg/mL (≈ 1.88 µM). Moreover, in assay [1], the “antibacterial effect on Streptococcus pneumoniae before versus after hydrolysis” value is listed as “comparable”. Besides, in assay [1], the “in vitro antibacterial activity against Streptococcus pneumoniae compared with tylosin” value is reported as “higher in vitro antibacterial activity”. Also, the “antibacterial effect on Escherichia coli before versus after hydrolysis” value in assay [2] is given as “comparable”. Moreover, the “antibacterial activity against Staphylococcus aureus before versus after hydrolysis” value in assay [3] (before vs after hydrolysis) is “stronger after the hydrolysis”. Besides, the “antibacterial activity against Streptococcus agalactiae before versus after hydrolysis” value in assay [4] (before vs after hydrolysis) is reported as “stronger before the hydrolysis”.
